The results in this text go back to patent US6617336B1, “2-arylquinoline derivatives, preparation and therapeutic use thereof” (Sanofi-Synthelabo, priority 1999, dated 2003).

The term melting point denotes the temperature, or range, at which the solid turns liquid. Regarding `Cc1cc2cccc([C@H](CO)N3CCCC[C@H]3C)c2nc1-c1ccccc1.Cl`, the melting point amounted to 68 °C.
